Experimental findings from PMC5159191 (Nature, 2016) are described below.

This assay deals with CCR2-T4L. The class given is binding, human. The settings on record: [3H]-INCB-3344 homologous displacement.

Consider `CCO[C@H]1CN(C2CCC(O)(c3ccc4c(c3)OCO4)CC2)C[C@@H]1NC(=O)CNC(=O)c1cccc(C(F)(F)F)c1` (stereo partly shown) [INCB-3344], for which the “improvement of affinity towards CCR2-T4L compared to WT CCR2” value is listed as “approximately 2 fold”.
